Reference: patent publication US6835382B2, “Ii peptide therapeutics to enhance antigen presentation” (University of Massachusetts, priority 1996, dated 2004)
Non-standard residues stand in square brackets, D forms with d. Cit = NC(=O)NCCC[C@H](N)C(=O)O; Orn = NCCC[C@H](N)C(=O)O

Experiments:
[1] = tested on: murine E^k MHC class II allele; assay: simultaneous assay, E^k allele (CH27 APC, TPc9.1 T hybridoma, THMCC82-103 or PGCC81-104); assay type: cell-based; conditions: for activity in simultaneous assay on E^k, in words: Tables 2 and 18
How it was run: (§1)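 Antigenic peptide, mitomycin C-treated APC, effector compound and allele-restricted T hybridoma cultured together for 24 h. Supernatant then transferred to interleukin-dependent HT-2 cells. T cell activation quantified as [3H]TdR uptake by HT-2 cells.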

[2] = target: T1, murine E^d MHC class II allele (Mus musculus, UniProt P01904+P01915); assay: simultaneous assay, E^d allele (A20 APC, G28.C9 T hybridoma, HEL106-116; HT-2 [3H]TdR readout); assay type: cell-based; parameters: The A20 and CH27 B cell lymphoma lines express H-2^d and H-2^k alleles, respectively; endogenous in cells; host or cells: A20 B cell lymphoma (mitomycin C-treated or paraformaldehyde-fixed)
T1 sequence (P01904 26-255): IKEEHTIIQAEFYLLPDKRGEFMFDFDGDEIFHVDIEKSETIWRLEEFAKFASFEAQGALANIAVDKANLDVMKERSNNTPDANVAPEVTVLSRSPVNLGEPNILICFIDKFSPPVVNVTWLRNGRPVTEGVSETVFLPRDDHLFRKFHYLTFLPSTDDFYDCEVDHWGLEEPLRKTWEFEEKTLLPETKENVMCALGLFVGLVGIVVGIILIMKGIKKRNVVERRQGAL
T1 sequence (P01915 27-264 limits assumed): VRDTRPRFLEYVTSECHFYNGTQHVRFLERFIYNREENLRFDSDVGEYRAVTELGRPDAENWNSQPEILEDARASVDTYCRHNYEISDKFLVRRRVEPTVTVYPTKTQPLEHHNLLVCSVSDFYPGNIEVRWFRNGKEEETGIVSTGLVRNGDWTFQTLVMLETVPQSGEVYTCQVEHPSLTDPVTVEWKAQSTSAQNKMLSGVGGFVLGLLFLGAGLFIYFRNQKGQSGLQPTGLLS
How it was run: as §1

[3] = Table 1, AE peptide 16 μM (second value), 0.075 μM THMCC82-103, supernatant 1:2
[4] = Table 1, AE peptide 64 μM (first value), 0.075 μM THMCC82-103, supernatant 1:2
[5] = Table 2, AE peptide 64 μM, 0.05 μM PGCC81-104, supernatant 1:2
[6] = Table 4, AE109 homolog 64 μM, supernatant 1:2
[7] = Table 8, AE peptide 4 μM (third), supernatant 1:4
[8] = Table 8, AE peptide 16 μM (second), supernatant 1:4
[9] = Table 8, AE peptide 64 μM (first), supernatant 1:4
[10] = Table 10, AE peptide 64 μM, supernatant 1:2 (first value)
[11] = Table 10, AE peptide 64 μM, supernatant 1:4 (second value)
[12] = Table 1, AE peptide 16 μM (second value), 0.4 μM HEL106-116, supernatant 1:4
[13] = Table 1, AE peptide 64 μM (first value), 0.4 μM HEL106-116, supernatant 1:4
[14] = Table 2, AE peptide 64 μM, 0.05 μM HEL106-116, supernatant 1:2
[15] = Table 8, AE peptide 4 μM (third), supernatant 1:8
[16] = Table 8, AE peptide 16 μM (second), supernatant 1:8
[17] = Table 8, AE peptide 64 μM (first), supernatant 1:8
[18] = Table 10, AE peptide 16 μM (second value), supernatant 1:2
[19] = Table 10, AE peptide 64 μM (first value), supernatant 1:2
[20] = Table 15, AE peptide 16 μM, supernatant 1:4
[21] = Table 5, AE peptide 64 μM, supernatant 1:4, normalized to E^d by a factor of 10
[22] = Table 5, AE peptide 64 μM, supernatant 1:4
[23] = Table 7, AE peptide 64 μM, supernatant 1:4, normalized by a factor of 5
[24] = Table 7, AE peptide 64 μM, supernatant 1:4
[25] = Table 14, AE peptide 64 μM, supernatant 1:4
[26] = Table 11, AE peptide 64 μM, supernatant 1:4
[27] = Table 11, AE peptide 64 μM, supernatant 1:8
[28] = Table 16, AE peptide 4 μM, supernatant 1:8

Ac-YRMKLPKSAK-NH2 [AE109]
Times Baseline Response, E^k [1, 3]: 2.2 | Times Baseline Response, E^k [1, 4]: 6.9 | Times Baseline Response, E^k [1, 5]: 43.7 | Times Baseline Response, E^k [1, 6]: 2.3 | Times Baseline Response, E^k [1, 7]: 1.0 | Times Baseline Response, E^k [1, 8]: 1.5, | Times Baseline Response, E^k [1, 9]: 4.3, | Times Baseline Response, E^k [1, 10]: 66.0 | Times Baseline Response, E^k [1, 11]: 56.3 | Times Baseline Response, E^d [2, 12]: 20.8 | Times Baseline Response, E^d [2, 13]: 39.3 | Times Baseline Response, E^d [2, 14]: 25.5 | Times Baseline Response, E^d [2, 6]: 3.3 | Times Baseline Response, E^d [2, 15]: 7.4 | Times Baseline Response, E^d [2, 16]: 17.6, | Times Baseline Response, E^d [2, 17]: 16.4, | Times Baseline Response, E^d [2, 18]: 24.3 | Times Baseline Response, E^d [2, 19]: 27.5

Ac-YRMKL hydrP KSAK-NH2 (Ac-YRMKL[hydrP]KSAK-NH2) [AE143]
Times Baseline Response, E^k [1, 7]: 0.98 | Times Baseline Response, E^k [1, 8]: 1.5, | Times Baseline Response, E^k [1, 9]: 4.2, | Times Baseline Response, E^d [2, 15]: 8.0 | Times Baseline Response, E^d [2, 16]: 19.6, | Times Baseline Response, E^d [2, 17]: 19.4,

Ac-ARMKNPK-NH2 [AE345]
Times Baseline Response, E^k [1, 20]: 4.8 | Times Baseline Response, E^d [2, 20]: 3.7

Ac-LR[Orn]KLPK-NH2 [AE195]
Times Baseline Response, E^k [1, 21]: 12.1 | Times Baseline Response, E^k [1, 20]: 19.8 | Times Baseline Response, E^d [2, 22]: 12.1 | Times Baseline Response, E^d [2, 20]: 34.3

Ac-LRMK Cit PK-NH2 (Ac-LRMK[Cit]PK-NH2; SMILES CSCC[C@H](NC(=O)[C@H](CCCNC(=N)N)NC(=O)[C@H](CC(C)C)NC(C)=O)C(=O)N[C@@H](CCCCN)C(=O)N[C@@H](CCCNC(N)=O)C(=O)N1CCC[C@H]1C(=O)N[C@@H](CCCCN)C(N)=O) [AE226]
Times Baseline Response, E^k [1, 23]: 9.0 | Times Baseline Response, E^d [2, 24]: 9.0

Ac-ARMKLPKSAK-NH2 [AE120]
Times Baseline Response, E^k [1, 10]: 36.8 | Times Baseline Response, E^k [1, 11]: 34.9 | Times Baseline Response, E^k [1, 20]: 4.8 | Times Baseline Response, E^d [2, 18]: 18.1 | Times Baseline Response, E^d [2, 19]: 35.4 | Times Baseline Response, E^d [2, 20]: 19.4

Ac-YRMKL-NH2 [AE116]
Times Baseline Response, E^k [1, 3]: 3.2 | Times Baseline Response, E^k [1, 4]: 15.5 | Times Baseline Response, E^d [2, 12]: 2.1 | Times Baseline Response, E^d [2, 13]: 7.1

Ac-LRNKNPK-NH2 [AE349]
Times Baseline Response, E^k [1, 20]: 6.1 | Times Baseline Response, E^d [2, 20]: 25.3

Ac-Y H MKLPKSAK-NH2 [AE133]
Times Baseline Response, E^k [1, 6]: 0.8 | Times Baseline Response, E^d [2, 6]: 0.9

Ac-QLDSLRMKLPKSAK-NH2 [AE152]
Times Baseline Response, E^k [1, 5]: 0.4 | activity in simultaneous assay on E^k, in words [1]: inhibition | Times Baseline Response, E^d [2, 14]: 2.3

Ac-Y N MKLPKSAK-NH2 [AE137]
Times Baseline Response, E^k [1, 6]: 0.7 | Times Baseline Response, E^d [2, 6]: 0.8

Ac-ARNKNPK-NH2 [AE346]
Times Baseline Response, E^k [1, 20]: 1.8 | Times Baseline Response, E^d [2, 20]: 1.2

Ac-L[Cit]NKLPK-NH2 [AE343]
Times Baseline Response, E^k [1, 20]: 2.9 | Times Baseline Response, E^d [2, 20]: 1.2

Ac-Y[Cit]MKLPKSAK-NH2 [AE131]
Times Baseline Response, E^k [1, 6]: 0.8 | Times Baseline Response, E^k [1, 20]: 4.1 | Times Baseline Response, E^d [2, 6]: 2.8 | Times Baseline Response, E^d [2, 20]: 1.6

Ac-LRMK E PK-NH2 (Ac-LRMKEPK-NH2) [AE231]
Times Baseline Response, E^k [1, 23]: 1.2 | Times Baseline Response, E^d [2, 24]: 1.8

Ac-LRMK[Orn]PK-NH2 [AE225]
Times Baseline Response, E^k [1, 23]: 13.9 | Times Baseline Response, E^d [2, 24]: 10.4

Ac-ARNKLPK-NH2 [AE344]
Times Baseline Response, E^k [1, 20]: 2.5 | Times Baseline Response, E^d [2, 20]: 7.7

Ac-LRMK H PK-NH2 (Ac-LRMKHPK-NH2) [AE228]
Times Baseline Response, E^k [1, 23]: 20.3 | Times Baseline Response, E^d [2, 24]: 8.5

Ac-LRMKLP F-NH2 (Ac-LRMKLPF-NH2) [AE248]
Times Baseline Response, E^k ([1]; Table 9, AE peptide 64 μM, supernatant 1:4, normalized by a factor of 5): 16.3 | Times Baseline Response, E^k [1, 20]: 42.6 | Times Baseline Response, E^d ([2]; Table 9, AE peptide 64 μM, supernatant 1:4): 17.2 | Times Baseline Response, E^d [2, 20]: 34.7

Ac-LR N KLPK-NH2 (Ac-LRNKLPK-NH2) [AE202]
Times Baseline Response, E^k [1, 21]: 9.3 | Times Baseline Response, E^k [1, 20]: 5.8 | Times Baseline Response, E^d [2, 22]: 18.2 | Times Baseline Response, E^d [2, 20]: 34.4

Ac-LR (mL) KyPK-NH2 [AE304]
Times Baseline Response, E^k [1, 25]: 13.4 | Times Baseline Response, E^d [2, 25]: 3.9

Ac-ARNKNPF-NH2 [AE347]
Times Baseline Response, E^k [1, 20]: 2.8 | Times Baseline Response, E^d [2, 20]: 1.0

Ac-LR (mL) KYPk-NH2 [AE305]
Times Baseline Response, E^k [1, 25]: 26.8 | Times Baseline Response, E^d [2, 25]: 5.2

Ac-LRMK l PK-NH2 [AE164]
Times Baseline Response, E^k [1, 26]: 3.8 | Times Baseline Response, E^k [1, 25]: 43.9 | Times Baseline Response, E^d [2, 27]: 17.7 | Times Baseline Response, E^d [2, 25]: 12.9

Ac-LR (mL) KYPK-NH2 [AE303]
Times Baseline Response, E^k [1, 25]: 25.3 | Times Baseline Response, E^d [2, 25]: 4.0

Ac-YRMKLPK-NH2 [AE113]
Times Baseline Response, E^k [1, 3]: 6.7 | Times Baseline Response, E^k [1, 4]: 15.5 | Times Baseline Response, Ek ([1]; Table 3, AE peptide 64 μM, supernatant 1:4, values reduced relative to E^d by a factor of 10): 24.9 | Times Baseline Response, E^d [2, 12]: 23.1 | Times Baseline Response, E^d [2, 13]: 36.3 | Times Baseline Response, Ed ([2]; Table 3, AE peptide 64 μM, supernatant 1:4): 12.3

Ac-LR m KLPK-NH2 [AE162]
Times Baseline Response, E^k [1, 26]: 1.3 | Times Baseline Response, E^d [2, 27]: 2.2

YRMKLPKSAKPVSQMR [AE101]
Times Baseline Response, E^k [1, 3]: 0.8 | Times Baseline Response, E^k [1, 4]: 1.0 | Times Baseline Response, E^d [2, 12]: 4.9 | Times Baseline Response, E^d [2, 13]: 13.6

Ac-LRMKL p K-NH2 [AE165]
Times Baseline Response, E^k [1, 26]: 3.6 | Times Baseline Response, E^d [2, 27]: 26.6

Ac-LRLK HArg PK-NH2 [AE341]
Times Baseline Response, E^k [1, 20]: 42.4 | Times Baseline Response, E^d [2, 20]: 38.9

Ac-Y K MKLPKSAK-NH2 [AE134]
Times Baseline Response, E^k [1, 6]: 0.9 | Times Baseline Response, E^k [1, 28]: 1.3 | Times Baseline Response, E^d [2, 6]: 0.7 | Times Baseline Response, E^d [2, 28]: 1.2

Ac-LQLDSLRMKLPKSAK-NH2 [AE151]
Times Baseline Response, E^k [1, 5]: 0.6 | activity in simultaneous assay on E^k, in words [1]: inhibition | Times Baseline Response, E^d [2, 14]: 2.5

Ac-LRM M LPK-NH2 (Ac-LRMMLPK-NH2) [AE220]
Times Baseline Response, E^k ([1]; Table 6, AE peptide 64 μM, supernatant 1:4, reduced by a factor of 5): 12.5 | Times Baseline Response, E^k [1, 28]: 1.1 | Times Baseline Response, E^d ([2]; Table 6, AE peptide 64 μM, supernatant 1:4): 2.8 | Times Baseline Response, E^d [2, 28]: 12.0
